Test results as given in patent publication US8236783B2, “ROS-sensitive iron chelators and methods of using the same” (Duke University, priority 2006, dated 2012).
“Also recorded” adds a separate entry of the source.

Assays:
[1] = 2-deoxyribose oxidative degradation assay (hydroxyl radical formation); conditions: chelator 0-400 μM, 200 μM H2O2, 10 μM FeCl3, 2 mM ascorbic acid, 15 mM deoxyribose, pH 7.4, 60 min at 37° C.
Description: Effect of chelator concentration on deoxyribose degradation by OH.. A and A0 are the absorbance at 532 nm in the presence or absence of chelator, respectively. Values below A/Ao=1 indicate protection of deoxyribose. Conditions: 200 μM H2O2, 10 μM FeCl3, 2 mM ascorbic acid, 15 mM deoxyribose in pH 7.4 NaHPO4 buffer.
Values of A/Ao above 1 indicate that the additive promotes OH. formation, whereas values below 1 indicate that the additive either scavenges OH. more efficiently than deoxyribose, or that it inhibits iron-catalyzed OH. formation via effective iron chelation.
The formation of hydroxyl radicals was measured by using a 2-deoxyribose oxidative degradation assay (Aruoma, O. I., Deoxyribose Assay for Detecting Hydroxyl Radicals. In Methods in Enzymol., 1994; Vol. 233, pp 57-66; Halliwell, B. et al., Anal. Biochem. 1987, 165, 215-219). In this assay, hydroxyl radicals, generated by reaction of an iron complex with H2O2 in the presence of ascorbic acid as a reducing agent, attack 2-deoxyribose to form malondialdehyde, which upon heating with TBA at low pH yields a pink chromogen (λmax=532 nm). Scavengers that react more effectively with hydroxyl radicals than deoxyribose result in less chromogen formation. Chelators that prevent iron from reacting with H2O2 also result in a decrease in absorption at 532 nm. Many standard buffers such as HEPES and TRIS are hydroxyl radical scavengers; therefore, we performed all assays in 50 mM NaH2PO4 buffered to pH 7.4. Our standard reaction conditions consisted of 1-mL buffered solutions prepared by sequential addition of the following reagents at their final concentrations: chelator (0-400 μM), FeCl3 (10 μM), 2-deoxyribose (15 mM), H2O2 (200 μM) and ascorbic acid (2 mM). The reactions were stirred for 60 min at 37° C., then quenched with 1 mL of TBA (1% w/v in 0.05 M NaOH) and 1 mL of TCA (2.8% w/v in water). After heating to 100° C. for 20 min, the solutions were cooled to room temperature and their absorbance at 532 nm recorded. The data are reported as A/Ao, where A is the absorbance at a 532 nm at a specific chelator concentration, and Ao is the absorbance at 532 nm for the background reaction containing no added chelator. All measurements were done in triplicate, and error bars reflect the standard deviation from triplicate runs.

[2] = time course for iron complex formation following addition of excess H2O2 (UV-vis); assay type: physicochemical; conditions: 100 mM H2O2 added to 1.5 mM Fe(NO3)3 and 3.0 mM BSIH in MeOH
Description: FIG. 2. UV-vis spectra showing the formation of [Fe(SIH)]^2+ and [Fe(SIH)2]^+ upon addition of 100 mM H2O2 to a solution of 1.5 mM Fe(NO3)3 and 3.0 mM BSIH in MeOH.
Although the kinetics are complicated by the mono to bis Fe(SIH)x coordination, the data fit a pseudo first-order expression to give kobs=1.6×10^−3 s^−1.

[3] = UV-vis spectra of iron complex formation; assay type: physicochemical; conditions: 60 μM BSIH, 30 μM Fe(NO3)3 in MeOH
Description: FIG. 1. […] The expanded view in the inset compares the mono and bis species [Fe(SIH)Cl2(CH3OH)] and [Fe(SIH)2]NO3, respectively.
These two species are distinguishable by a ligand-field band centered at 658 nm that is more pronounced in the mono species compared to the bis species (FIG. 1 inset).

Structure (SMILES)	effect of chelator concentration on deoxyribose degradation, A/Ao at 532 nm [1]	kobs (pseudo first-order) for iron complex formation [2]	iron complex formation after addition of H2O2 (UV-vis spectrum) ([3]; 0.6 mM H2O2 added)	complex formation with Fe^3+ (UV-vis spectrum) ([3]; no H2O2)
CC(=O)N(O)CCCCCNC(=O)CCC(=O)N(O)CCCCCNC(=O)CCC(=O)N(O)CCCCCN [DFO, desferrioxamine]	decrease			
O=C(O)CN(CCN(CC(=O)O)CC(=O)O)CC(=O)O [EDTA]	significant increase			
CC1(C)OB(c2ccccc2C=NNC(=O)c2ccncc2)OC1(C)C [BSIH, Isonicotinic acid [2-(4,4,5,5-tetramethyl-[1,3,2]dioxaborolan-2-yl)-benzylidene]-hydrazide]	protects against deoxyribose degradation as well as both DFO and SIH	0.0016 s⁻¹	results in formation of a new spectrum matching that of [Fe(SIH)2]^+; also recorded: results in a spectrum (open circles) that matches that of [Fe(SIH)2]^+	does not form a complex; also recorded: no complex formation
O=C(NN=Cc1ccccc1O)c1ccncc1 [SIH, salicylaldehyde isonicotinoyl hydrazone]	decrease			
CC1(C)OB(c2ccccc2C=O)OC1(C)C [Bsal, (2-formylphenyl)boronic acid pinacol ester]	Neither Bsal nor Sal has a significant influence			
